Values of other authors, collected in patent US20080317845A1, “Duloxetine Formulation” (priority 2007, published 2008).
Where a name gives a salt, the structure may show the parent alone.

In the case of CNCC[C@H](Oc1cccc2ccccc12)c1cccs1 [duloxetine, (+)-(S)-N-methyl-y-(1-naphthyloxy)-2-thiophenepropylamine hydrochloride], the “stability in acidic media” value is listed as “unstable”.
